Results: patent US20050084509A1, “Use of citric acid and low concentrations of alpha-hydroxy acids for superficial skin treatment” (priority 2003, published 2005)

Tests used:
photodamaged skin = assay: citric acid peels on photodamaged skin (office peel study); details: 50 percent citric acid solution
ichthyosis = details: in vivo; cited from earlier work
skin = assay: low concentration citric acid peel self-administered in the home; type: in vivo, human
signs of photoaging = assay: citric acid versus glycolic acid at equal concentration and same pH; type: in vivo, human
[1] = two months after last treatment

O=C(O)CC(O)(CC(=O)O)C(=O)O [citric acid]
fine lines and wrinkles, photographs evaluated by blinded observers (photodamaged skin; 2-5 min, neutralized, peels at one month intervals, evaluated two months after last treatment): statistically significant improvement
redness immediately following a peel (photodamaged skin; immediately after peel): increase in redness
fine lines, wrinkles by Primos topographic image analysis (photodamaged skin; [1]): improvement in fine lines, wrinkles
pore size by Primos topographic image analysis (photodamaged skin; [1]): reduction in pore size
redness by cross-polarized photography (photodamaged skin; [1]): no dramatic change in redness
efficacy in treating ichthyosis (ichthyosis): highly effective
subjective assessment of fine lines, wrinkles, enlarged pores, and brown spots (skin; 10 percent citric acid solution, three treatments at two-week intervals, two months after third treatment): statistically significant improvement
skin tolerance without neutralization (skin; ten percent citric acid): may be left on most people's skin without neutralization
reducing the signs of photoaging versus glycolic acid (signs of photoaging; equal concentration of glycolic acid at the same pH): more effective
side effects versus glycolic acid (signs of photoaging; glycolic acid of the same concentration): side effects are less
